We go through nine compounds from PMC12131788, “Discovery of natural CdnP inhibitors through structure-based virtual screening and molecular dynamics simulations” (Microbiology Spectrum, 2025).

The target in one experiment is T1, CdnP (Rv2837c) (Mycobacterium tuberculosis, UniProt P71615).
T1 construct: pET32a vector-encoded fusion (Trx / His6 / S-tag; composition from own knowledge of the vector, His tag consistent with Ni-NTA purification) (N); made in house; host or cells: Escherichia coli BL21(DE3)
Description: High-throughput enzymatic activity assay (coralyne/c-di-AMP fluorescence). As to conditions: for IC50: 100 nM CdnP, 15 µM c-di-AMP, 37°C, read-out: IC50 (half maximal inhibitory concentration); for inhibitory activity against CdnP: at concentrations as high as 1 mM (data not shown). Type of experiment: biochemical.

Experiment [1] addresses T2, CdnP (Mycobacterium tuberculosis, UniProt P71615). Conditions: cited from earlier work.
Experiment [2] deals with T2, CdnP. Description: Surface plasmon resonance (SPR) binding assay. Conditions: for kon: read-out: 1:1 binding ka. On the procedure: Binding affinity between CdnP and test compounds was determined using a Biacore 1K instrument (Cytiva). Recombinant CdnP was immobilized on a Series S CM5 sensor chip according to manufacturer’s protocols. Association and dissociation kinetics were measured using a pre-established multi-cycle kinetics/affinity protocol with eight serially diluted compound concentrations in running buffer (10 mM HEPES, pH 7.4, 150 mM NaCl, 3 mM EDTA, 0.005% [vol/vol] Surfactant P20, and 5% [vol/vol] DMSO). Binding data were analyzed using the multi-cycle kinetics model to determine association rate (Ka), dissociation rate (Kd), and equilibrium dissociation constant (KD) values.

The mark [3] stands for this setting: 1:1 binding, multi-cycle kinetics.

Structures are written as SMILES.

T1 sequence (P71615 whole entry, the tested form may be a part): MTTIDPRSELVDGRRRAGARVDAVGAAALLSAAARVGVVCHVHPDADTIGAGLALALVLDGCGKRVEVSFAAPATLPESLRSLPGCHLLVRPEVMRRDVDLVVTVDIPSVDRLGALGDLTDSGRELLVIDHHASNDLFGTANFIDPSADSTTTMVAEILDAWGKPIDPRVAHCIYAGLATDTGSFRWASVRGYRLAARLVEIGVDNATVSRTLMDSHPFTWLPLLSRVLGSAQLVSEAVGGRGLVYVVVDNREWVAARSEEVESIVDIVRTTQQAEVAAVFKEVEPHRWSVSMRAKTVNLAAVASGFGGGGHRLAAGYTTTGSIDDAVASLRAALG
T2 sequence (P71615 whole entry, looked up): as the sequence (P71615 whole entry, the tested form may be a part) above

For orientation: Kd means the free concentration of one partner at which half of the binding sites on the other are occupied at equilibrium, for simple one-to-one binding. Consider `COc1ccc([C@]2(C#N)CC[C@@H](C(=O)O)CC2)cc1OC1CCCC1` [Cilomilast, reference compound], for which, at CdnP (Rv2837c), the IC50 was over 1000 µM and the “inhibitory activity against CdnP” value is on record as “no detectable inhibitory activity”. For the same compound, on CdnP [1], the “inhibition of CdnP” value was “mild inhibition”. Besides, at CdnP [2], the “Quality kinetics Chi^2” value turned out to be 3.17e-01 RU^2, the Rmax was 1733.5 RU, the kd was found to be 0.465 s⁻¹ and the tc was 6.30e+06. In addition, the kon at CdnP [2] came out at 10.5 M⁻¹ s⁻¹. On CdnP [2] (setting [3]), this compound yielded a Kd of 44200 µM.

Turning to `O=C1CCc2cc(OCCCCc3nnnn3C3CCCCC3)ccc2N1` [Cilostazol, reference compound], on CdnP (Rv2837c), the IC50 was over 1000 µM and the “inhibitory activity against CdnP” value was “no detectable inhibitory activity”. Besides, at CdnP [1], the “inhibition of CdnP” value is reported as “mild inhibition”. Also, on CdnP [2], the “Quality kinetics Chi^2” value is recorded as 7.64e-02 RU^2, the kd turned out to be 0.321 s⁻¹, the tc was 5.48e+09 and the kon amounted to 76700 M⁻¹ s⁻¹. The compound also came in with an equilibrium dissociation constant (Kd) on CdnP [2] (setting [3]) of 4.18 µM.

Take `C[C@@H]1O[C@@H](OC[C@H]2O[C@@H](Oc3cc(O)c4c(=O)cc(-c5ccc(O)cc5)oc4c3)[C@H](O[C@@H]3O[C@@H](C)[C@H](O)[C@@H](O)[C@H]3O)[C@@H](O)[C@@H]2O)[C@H](O)[C@H](O)[C@H]1O` [Ligustroflavone]: the IC50 on CdnP (Rv2837c) was 39.5 ± 1.74 µM. At CdnP [2], the “Quality kinetics Chi^2” value was 4.90e-02 RU^2, the Rmax stood at 1.0 RU, the kd came to 6.42e-06 s⁻¹ and the tc is 1.16e+08. The kon on CdnP [2] is 339 M⁻¹ s⁻¹. In addition, the Kd at CdnP [2] (setting [3]) worked out at 0.0189 µM.

As for `Cc1cc(O)c2c3c1C(=O)C1c4c(c(O)cc5cc(O)cc(C)c45)[C@@]3(COC2=O)[C@H]1O` [Macrosporusone A], the IC50 on CdnP (Rv2837c) stood at 16.8 ± 0.44 µM. On CdnP [2], the “Quality kinetics Chi^2” value came out at 2.46e+00 RU^2, the kd is 1.62e-07 s⁻¹, the tc was found to be 1.02e+08 and the kon stood at 254000 M⁻¹ s⁻¹.

Take `CC(OCCCCOC(C)n1cnc2c(=O)[nH]cnc21)n1cnc2c(=O)[nH]cnc21` (stereo not shown) [NCI 79195]: at CdnP [1], the IC50 is 9.66 µM.

Regarding `COc1ccc(-c2cc(=O)c3c(O)cc(O[C@@H]4O[C@H](CO)[C@@H](O)[C@H](O)[C@H]4O[C@@H]4O[C@@H](C)[C@H](O)[C@@H](O)[C@H]4O)cc3o2)cc1O` [Neodiosmin], the IC50 on CdnP (Rv2837c) was determined as 5.5 ± 1.94 µM. Besides, on CdnP [2], the “Quality kinetics Chi^2” value is on record as 8.92e-02 RU^2, the Rmax turned out to be 26.8 RU, the kd was determined as 0.00229 s⁻¹ and the tc worked out at 1.17e+08. Further, on CdnP [2], binding was put at a Kd of 380 µM and the kon was 5.95 M⁻¹ s⁻¹. In addition, the Kd at CdnP [2] (setting [3]) came out at 384 µM.

`C[C@@H]1O[C@@H](O[C@H]2[C@H](Oc3cc(O)c4c(=O)cc(-c5ccc(O)cc5)oc4c3)O[C@H](CO)[C@@H](O)[C@@H]2O)[C@H](O)[C@H](O)[C@H]1O` [Rhoifolin]: the IC50 on CdnP (Rv2837c) came to 20.3 ± 1.74 µM. Moreover, at CdnP [2], the “Quality kinetics Chi^2” value is reported as 2.02e-01 RU^2, the kd is 0.209 s⁻¹, the tc was 1.49e+08 and the Kd stood at 0.97 µM. At CdnP [2], the kon was 215000 M⁻¹ s⁻¹. On CdnP [2] (setting [3]), this compound displayed a Kd of 0.972 µM.

Turning to `CCCc1nn(C)c2c(=O)[nH]c(-c3cc(S(=O)(=O)N4CCN(C)CC4)ccc3OCC)nc12` [sildenafil], the “inhibitory activity against CdnP” value at CdnP (Rv2837c) is “no detectable inhibitory activity”. Further, the “inhibition of CdnP” value on CdnP [1] is reported as “mild inhibition”.

As for `CN1CC(=O)N2[C@H](c3ccc4c(c3)OCO4)c3[nH]c4ccccc4c3C[C@@H]2C1=O` [tadalafil], the “inhibitory activity against CdnP” value against CdnP (Rv2837c) was “no detectable inhibitory activity”. Besides, the “inhibition of CdnP” value on CdnP [1] is given as “mild inhibition”.
